In patent US8367644B2, “Methods and compounds useful to induce apoptosis in cancer cells” (The Burnham Institute, priority 2003, dated 2013):
Where two headings read alike, the source gives them in different places.

Experiments:
[1] = test system: MCF7 cell line (high expressor of Bcl-2/Bcl-xL); test: XTT dye reduction cell viability assay, MCF7
Procedure: (§1) To evaluate the cytotoxic activity of our compounds on human tumors cells, we tested their biological activities using XTT dye reduction assays using two breast cancer cell lines: MCF7 (high expressor of Bcl-2/Bcl-xL) and ZR75-1 (low expressor of Bcl-2/Bcl-xL).
The effects of the compounds studied in this paper on viability of tumor cells in culture were monitored by using XTT (Weislow et al., J. Natl. Cancer Inst., 81:577 (1989)) assays with MCF7 and ZR75-1 cell lines. MCF7 cells were grown in DMEM containing 10% fetal bovine serum, penicillin/streptomycin, supplemented with 10^−10 M insulin, 1 mM sodium pyruvate and glutamine. ZR75-1 cells were grown in RPMI containing 10% fetal bovine serum, penicillin/streptomycin, supplemented with HEPES buffer, 1 mM sodium pyruvate and glutamine. Cells were regularly tested for mycoplasma contamination. Cells were seeded triplicates at an initial cell density of 1,000 cells per well. Blank wells received no cells. […] Relative numbers of viable cells was determined by XTT assay. […] Then, the contents of each plate were mixed and optical densities were determined at a wavelength of 450 nm (OD450). Net OD450 was determined after subtracting OD450 of blank wells. […]

[2] = test system: ZR75-1 cell line (low expressor of Bcl-2/Bcl-xL); test: XTT dye reduction cell viability assay, ZR75-1; conditions: ZR75-1, XTT; for IC50: read-out: IC50, cell viability, three days
Procedure: as §1
(§2) The effects of the compounds studied in this paper on viability of tumor cells in culture were monitored by using XTT (Weislow et al., J. Natl. Cancer Inst., 81:577 (1989)) assays with MCF7 and ZR75-1 cell lines. MCF7 cells were grown in DMEM containing 10% fetal bovine serum, penicillin/streptomycin, supplemented with 10^−10 M insulin, 1 mM sodium pyruvate and glutamine. ZR75-1 cells were grown in RPMI containing 10% fetal bovine serum, penicillin/streptomycin, supplemented with HEPES buffer, 1 mM sodium pyruvate and glutamine. Cells were regularly tested for mycoplasma contamination. Cells were seeded triplicates at an initial cell density of 1,000 cells per well. Blank wells received no cells. […] Relative numbers of viable cells was determined by XTT assay. Briefly, in a 96-well plate, we added 50 μl of a mixture of 1 mg/ml of XTT (Weislow et al., J. Natl. Cancer Inst., 81:577 (1989)) (2,3-bis(2-methoxy-4-nitro-5-sulfophenyl)-5-[(phenylamino)carbonyl]-2H-tetrazolium hydroxide) (Polysciences, Washington, Pa.) containing 0.025 mM PMS (phenazine methosulfate) to each well. The 96-well plates were re-incubated for an additional 4 hours to allow for XTT formazan production. Then, the contents of each plate were mixed and optical densities were determined at a wavelength of 450 nm (OD450). Net OD450 was determined after subtracting OD450 of blank wells. Low-passage HeLa cells (between passage number 10 and 20) were transfected with pcDNA3-Bcl-xL or control pcDNA3 plasmids using Lipofectamine Plus reagent (Invitrogen) and selected in medium containing 800 μg/ml of G418. Immunoblot analysis of Bcl-xL was accomplished as described (Krajanski 1996-Cancer Res) HeLa-transfectants were treated with various doses of Gossypol, Purpurogallin, and its derivatives (0, 1, 3, 10 and 100 μM).

Bcl-xL = target: T1, Bcl-xL (Homo sapiens, UniProt Q07817); test: Fluorescence polarization-based competitive binding assay (FPA) with fluorescein-labeled Bad peptide
T1 construct: made in house
Procedure: FPA assays were conducted with a fluorescein-labeled Bad peptide ([sequence]-K(FITC)-FVD) (SEQ ID NO:1) (Synpep Corporation, Dublin, Calif.) using a LJL Analyst HT (Molecular Devices Co., Sunnyvale, Calif.). Dilution buffer for all stocks and samples was 50 mM Tris-Bis pH 7.4, 0.01% bovine gamma globulin. A series of two-fold dilutions of Gossypol were prepared, i.e., 100 μM, 50 μM, down to 0.1 μM in dilution buffer. To each tube was added a solution containing 30 nM of Bcl-xL and 4 nM fluoresceinated peptide. The tubes were incubated for 5 minutes at room temperature and 20 μl each of reaction mixture was transferred to 96-well black PS, HE Microplate (LJL Biosystems Co.). All assays were performed in quadruplicate, with blank wells receiving no Gossypol. Then, the plate was read for total intensity and polarization (in mP units) was measured. Controls included dose-responses measurements in absence of the proteins, to assess any interactions between the compounds and the FITC-BH3 peptide. Eventual effects were taken into account by subtraction.

[3] = previous cell-based assays; cited from earlier work
[4] = Combination of Apogossypol with fludarabine (FIG. 6, 7); format: cell-based
HeLa cells = HeLa cells viability assay; format: cell-based; conditions: Homo sapiens, read-out: IC50 (μM) HeLa
Procedure: as §1, §2

[5] = Table 1, green tea extracts, target Bcl-xL inferred from text and figure legends, read-out: IC50
[6] = Table 4, Purpurogallin derivatives, read-out: IC50 (μM) (Bcl-xL)
[7] = Table 2, black tea extracts, target Bcl-xL inferred from text and figure legends, read-out: IC50

T1 sequence (Q07817 whole entry): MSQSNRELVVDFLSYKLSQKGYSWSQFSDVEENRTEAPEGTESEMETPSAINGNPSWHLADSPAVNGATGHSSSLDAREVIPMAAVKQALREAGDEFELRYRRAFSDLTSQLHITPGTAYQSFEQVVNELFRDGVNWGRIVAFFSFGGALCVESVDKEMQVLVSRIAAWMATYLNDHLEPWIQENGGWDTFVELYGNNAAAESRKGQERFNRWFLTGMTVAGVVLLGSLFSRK

For `Cc1cc2c(C(C)C)c(O)c(O)c(C=O)c2c(O)c1-c1c(C)cc2c(C(C)C)c(O)c(O)c(C=O)c2c1O` (racemic) [Gossypol], the IC50 ([1]; read-out: IC50, cell viability, three days) was 13.2 µM and the IC50 [2] was 8.4 µM.

With `Oc1cc(O)c2c(c1)O[C@@H](c1ccc(O)c(O)c1)[C@@H](O)C2` [(+) Epicatechin (EC), (+) Epicatechin] the IC50 (Bcl-xL; [5]) was over 100 µM.

`Oc1cc(O)c2c(c1)O[C@@H](c1ccc(O)c(O)c1)[C@H](O)C2` [(−) Catechin (C), (−) Catechin] gave an IC50 (Bcl-xL; [5]) of over 100 µM.

`O=C(O[C@@H]1Cc2c(O)cc(O)cc2O[C@H]1c1ccc(O)c(O)c1)c1cc(O)c(O)c(O)c1` [(−) Catechin-3-gallate (CG), (−) Catechin-3-gallate] showed an IC50 (Bcl-xL; [5]) of 0.29 µM.

Compound `O=C(O[C@@H]1Cc2c(O)cc(O)cc2O[C@@H]1c1ccc(O)c(O)c1)c1cc(O)c(O)c(O)c1` [(−) Epicatechin-3-gallate (ECG), (−) Epicatechin-3-gallate] has an IC50 (Bcl-xL; [5]) of 0.24 µM.

Compound `Oc1cc(O)c2c(c1)O[C@H](c1cc(O)c(O)c(O)c1)[C@H](O)C2` [(−) Epigallocatechin (EGC), (−) Epigallocatechin] has an IC50 (Bcl-xL; [5]) of over 100 µM.

For `O=C(O[C@@H]1Cc2c(O)cc(O)cc2O[C@@H]1c1cc(O)c(O)c(O)c1)c1cc(O)c(O)c(O)c1` [(−) Epigallocatechin-3-gallate (EGCG), (−) Epigallocatechin-3-gallate], the IC50 (Bcl-xL; [5]) was 0.98 µM.

For `Oc1cc(O)c2c(c1)O[C@@H](c1cc(O)c(O)c(O)c1)[C@H](O)C2` [(−) Gallocatechin (GC), (−) Gallocatechin], the IC50 (Bcl-xL; [5]) was over 100 µM.

Work on `O=C(O[C@@H]1Cc2c(O)cc(O)cc2O[C@H]1c1cc(O)c(O)c(O)c1)c1cc(O)c(O)c(O)c1` [(−) Gallocatechin-3-gallate (GCG), (−) Gallocatechin-3-gallate] yielded an IC50 (Bcl-xL; [5]) of 0.63 µM.

In the case of `Cc1cc2c(C(C)C)c(O)c(O)c(C=O)c2c(O)c1-c1c(C)cc2c(C(C)C)c(O)c(O)c(C=O)c2c1O` [(−) Gossypol], the “effectiveness as a cytotoxic agent relative to (+) Gossypol” value [3] is listed as “ten times more effective than (+) Gossypol”.

For `Cc1cc2c(C(C)C)c(O)c(O)cc2c(O)c1-c1c(C)cc2c(C(C)C)c(O)c(O)cc2c1O` [Apogossypol (6C1), Apogossypol], the “effect in combination with fludarabine (F-ara-A)” value ([4]; FIG. 6) was “additive effect” and the “effect in combination with F-ara-A” value ([4]; FIG. 7) was “synergistic Effect”.

`CCOC(=O)c1cc(O)c(=O)c2cc(O)c(O)cc2c1` [Compound 5D1] gave an IC50 (Bcl-xL; [6]) of 73 µM, an IC50 (HeLa cells; Table 4, HeLa cells viability) of 51.5 µM and an IC50 [2] of about 50 µM.

`COc1cc2cccc(OC)c(=O)c2c(OC)c1OC` [Compound 6A1] gave an IC50 (Bcl-xL; [6]) of over 100 µM and an IC50 (HeLa cells; Table 4, HeLa cells viability) of over 100 µM.

`COc1c(O)cc2cccc(OC)c(=O)c2c1OC` [Compound 6A7] gave an IC50 (Bcl-xL) of over 100 µM and an IC50 (HeLa cells; HeLa) of over 100 µM.

`O=C(O)c1cc(O)c(=O)c2cc(O)c(O)cc2c1` [Compound 1142] gave an IC50 (Bcl-xL; [6]) of 7.4 µM and an IC50 (HeLa cells; Table 4, HeLa cells viability) of 22.9 µM.

`COC(=O)c1cc(O)c(=O)c2cc(O)c(O)cc2c1` [Compound 1163] gave an IC50 (Bcl-xL; [6]) of 2.6 µM.

In the case of `O=c1c(O)cccc2cc(O)c(O)c(O)c12` [Purpurogallin], the “competition for the BH3-binding pocket” value (Bcl-xL; FIG. 1 legend) is reported as “compete for the BH3-binding pocket of Bcl-xL”, the IC50 (HeLa cells; Table 4, HeLa cells viability) is reported as 6.5 µM and the cytotoxic activity [1] is reported as “did not show appreciable activity”. For the same compound, the cytotoxic activity [2] was “did not show appreciable activity”.

With `O=c1c(O)cccc2c([C@H]3Oc4cc(O)cc(O)c4C[C@H]3O)cc(O)c(O)c12` [Theaflavanin] the IC50 (Bcl-xL; [7]) was 0.55 µM.

For `O=C(O[C@H]1Cc2c(O)cc(O)cc2OC1c1cc(O)c(=O)c2c(O)c(O)cc([C@H]3Oc4cc(O)cc(O)c4C[C@H]3O)c2c1)c1cc(O)c(O)c(O)c1` (stereo partly drawn) [Theaflavin-3′-gallate], the IC50 (Bcl-xL; [7]) was 0.6 µM.

With `O=c1c(O)cc([C@H]2Oc3cc(O)cc(O)c3C[C@H]2O)cc2c([C@H]3Oc4cc(O)cc(O)c4C[C@H]3O)cc(O)c(O)c12` [Theaflavin] the IC50 (Bcl-xL; [7]) was 1.05 µM.
